Counter-ions that a name gives are not always drawn.
Tests used:
Format in all cases: biochemical
[1] = molecular target: human TYK2 catalytic kinase (JH1) domain (Homo sapiens (Human), UniProt P29597); assay: ADP-Glo Kinase Assay, recombinant TYK2 catalytic kinase (JH1) domain; settings: recombinant JH1 domain 2 nM, 10 μM ATP, JAK3-974 peptide, mean, read-out: TYK2 biochem IC50 (nM) Mean
Outline: (§1)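 ADP-Glo luminescence with 50 μM peptide and 100 min reactions: JAK1 4 nM with JAK3-342 peptide; JAK2, JAK3 and TYK2 at 0.2, 0.3 and 2 nM with JAK3-974 peptide. Compounds tested from 10 or 1 μM top, 11 points, 3-fold. IC50 from a 4-parameter logistic fit of normalized activity.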

[2] = molecular target: human JAK1 catalytic kinase (JH1) domain (Homo sapiens (Human), UniProt P23458); assay: ADP-Glo Kinase Assay, recombinant JAK1 catalytic kinase (JH1) domain; settings: recombinant JH1 domain 4 nM, 35 μM ATP, JAK3-342 peptide, mean, read-out: JAK1 biochem IC50 (nM) Mean
Outline: as §1

[3] = molecular target: human JAK2 catalytic kinase (JH1) domain (Homo sapiens (Human), UniProt O60674); assay: ADP-Glo Kinase Assay, recombinant JAK2 catalytic kinase (JH1) domain; settings: recombinant JH1 domain 0.2 nM, 15 μM ATP, JAK3-974 peptide, mean, read-out: JAK2 biochem IC50 (nM) Mean
Outline: as §1

[4] = molecular target: human JAK3 catalytic kinase (JH1) domain (Homo sapiens (Human), UniProt P52333); assay: ADP-Glo Kinase Assay, recombinant JAK3 catalytic kinase (JH1) domain; settings: recombinant JH1 domain 0.3 nM, 4 μM ATP, JAK3-974 peptide, mean, read-out: JAK3 biochem IC50 (nM) Mean
Outline: as §1

Sequence of human TYK2 catalytic kinase (JH1) domain (P29597 897-1176): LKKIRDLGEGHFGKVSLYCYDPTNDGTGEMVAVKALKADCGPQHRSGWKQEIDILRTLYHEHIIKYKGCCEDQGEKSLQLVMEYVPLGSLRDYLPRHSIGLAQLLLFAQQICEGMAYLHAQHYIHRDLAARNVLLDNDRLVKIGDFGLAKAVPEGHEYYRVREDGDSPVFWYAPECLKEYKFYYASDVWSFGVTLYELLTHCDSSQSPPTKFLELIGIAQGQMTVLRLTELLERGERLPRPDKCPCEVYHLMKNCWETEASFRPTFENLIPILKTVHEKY
Sequence of human JAK3 catalytic kinase (JH1) domain (P52333 822-1111): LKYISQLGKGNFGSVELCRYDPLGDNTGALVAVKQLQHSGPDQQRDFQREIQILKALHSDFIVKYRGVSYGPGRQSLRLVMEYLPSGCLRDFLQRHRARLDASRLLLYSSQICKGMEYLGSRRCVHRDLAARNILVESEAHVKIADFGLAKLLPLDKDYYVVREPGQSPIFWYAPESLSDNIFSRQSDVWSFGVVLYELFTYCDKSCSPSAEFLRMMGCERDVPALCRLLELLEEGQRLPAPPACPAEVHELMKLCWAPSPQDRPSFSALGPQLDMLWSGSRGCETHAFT
Sequence of human JAK2 catalytic kinase (JH1) domain (O60674 849-1124): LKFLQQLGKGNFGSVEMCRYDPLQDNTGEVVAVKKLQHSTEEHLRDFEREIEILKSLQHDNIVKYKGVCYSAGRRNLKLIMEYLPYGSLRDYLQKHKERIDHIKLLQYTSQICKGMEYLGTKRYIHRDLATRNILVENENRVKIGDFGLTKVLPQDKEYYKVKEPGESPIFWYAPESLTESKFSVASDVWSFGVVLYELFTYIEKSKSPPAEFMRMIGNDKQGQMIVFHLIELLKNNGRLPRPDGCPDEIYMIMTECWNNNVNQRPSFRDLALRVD
Sequence of human JAK1 catalytic kinase (JH1) domain (P23458 875-1153): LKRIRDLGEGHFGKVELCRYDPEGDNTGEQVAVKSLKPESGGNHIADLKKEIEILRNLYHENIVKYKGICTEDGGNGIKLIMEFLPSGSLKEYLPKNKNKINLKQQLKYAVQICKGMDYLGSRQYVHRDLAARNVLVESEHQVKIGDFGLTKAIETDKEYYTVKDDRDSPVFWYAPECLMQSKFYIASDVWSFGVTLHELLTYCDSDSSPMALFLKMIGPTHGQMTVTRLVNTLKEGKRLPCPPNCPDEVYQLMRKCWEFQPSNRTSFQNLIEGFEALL

| SMILES | IC50 [1] | IC50 [2] | IC50 [3] | IC50 [4] |
| --- | --- | --- | --- | --- |
| O=C([C@@H]1CC1(F)F)N1C2CCC1CN(c1ccnn3cc(-c4cnn(C(F)F)c4)cc13)C2 [Example 21, ((S)-2,2-difluorocyclopropyl)(3-(6-(1-(difluoromethyl)-1H-pyrazol-4-yl)pyrrolo[1,2-b]pyridazin-4-yl)-3,8-diazabicyclo[3.2.1]octan-8-yl)methanone] | 1.4 nM | 39 nM | 28 nM | 565 nM |
| Cn1cc(-c2cc3c(N4CC5CCC(C4)N5C(=O)[C@@H]4CC4(F)F)ncnn3c2)cn1 [Example 83, ((S)-2,2-difluorocyclopropyl)(3-(6-(1-methyl-1H-pyrazol-4-yl)pyrrolo[2,1-f][1,2,4]triazin-4-yl)-3,8-diazabicyclo[3.2.1]octan-8-yl)methanone] | 333 nM | 652 nM | 5730 nM | 1640 nM |
| O=C(C1CC1)N1C2CCC1CN(c1ncnc3[nH]c(-c4cnn(C(F)F)c4)cc13)C2 [Example 219, cyclopropyl(3-(6-(1-(difluoromethyl)-1H-pyrazol-4-yl)-7H-pyrrolo[2,3-d]pyrimidin-4-yl)-3,8-diazabicyclo[3.2.1]octan-8-yl)methanone] | 23.6 nM | 232 nM | 752 nM | 698 nM |
| CN1CCOC(c2nc3c(N4CC5CCC(C4)N5C(=O)[C@@H]4C[C@H]4F)ccnc3[nH]2)C1 (stereo partly drawn) [Example 218, ((1S,2R)-2-fluorocyclopropyl)(3-(2-(4-methylmorpholin-2-yl)-3H-imidazo[4,5-b]pyridin-7-yl)-3,8-diazabicyclo[3.2.1]octan-8-yl)methanone] | 783 nM | 2940 nM | 10000 nM | 10000 nM |
| COc1cncc(-c2cc3c(N4CC5CCC(C4)N5C(=O)[C@@H]4C[C@H]4F)ccnn3c2)n1 [Example 123, ((1S,2R)-2-fluorocyclopropyl)(3-(6-(6-methoxypyrazin-2-yl)pyrrolo[1,2-b]pyridazin-4-yl)-3,8-diazabicyclo[3.2.1]octan-8-yl)methanone] | 23.7 nM | 302 nM | 386 nM | 5510 nM |
| O=C(C1CC1)N1C2CCC1CN(c1ncnn3cc(-c4cnn(C5COC5)c4)cc13)C2 [Example 151] | 239 nM | 3300 nM | 4100 nM | 3380 nM |
| O=C([C@@H]1C[C@H]1F)N1C2CCC1CN(c1ncnn3cc(-c4ccnnc4)cc13)C2 [Example 90, ((1S,2R)-2-fluorocyclopropyl)(3-(6-(pyridazin-4-yl)pyrrolo[2,1-f][1,2,4]triazin-4-yl)-3,8-diazabicyclo[3.2.1]octan-8-yl)methanone] | 124 nM | 1120 nM | 3060 nM | 10000 nM |
| CC(C)C(=O)N1C2CCC1CN(c1ncnn3cc(-c4cnn(C(F)F)c4)cc13)C2 [Example 42, 1-(3-(6-(1-(difluoromethyl)-1H-pyrazol-4-yl)pyrrolo[2,1-f][1,2,4]triazin-4-yl)-3,8-diazabicyclo[3.2.1]octan-8-yl)-2-methylpropan-1-one] | 466 nM | 5220 nM | 7960 nM | 9510 nM |
| O=C(C1CC1(F)F)N1C2CCC1CN(c1ncnn3cc(-c4cnn(C(F)F)c4)cc13)C2 (centres unmarked) [Example 49, (2,2-difluorocyclopropyl)(3-(6-(1-(difluoromethyl)-1H-pyrazol-4-yl)pyrrolo[2,1-f][1,2,4]triazin-4-yl)-3,8-diazabicyclo[3.2.1]octan-8-yl)methanone] | 81 nM | 475 nM | 2100 nM | 4900 nM |
| O=C(C1CC1)N1C2CCC1CN(c1ncnn3cc(-c4cnn(CC5COC5)c4)cc13)C2 [Example 160] | 107 nM | 555 nM | 931 nM | 780 nM |
| O=C(N1C2CCC1CN(c1ncnn3cc(-c4cnn(C(F)F)c4)cc13)C2)C(F)(F)F [Example 86, 1-(3-(6-(1-(difluoromethyl)-1H-pyrazol-4-yl)pyrrolo[2,1-f][1,2,4]triazin-4-yl)-3,8-diazabicyclo[3.2.1]octan-8-yl)-2,2,2-trifluoroethan-1-one] | 334 nM | 1030 nM | 6080 nM | 5090 nM |
| CC(F)(F)C(=O)N1C2CCC1CN(c1ncnn3cc(-c4cnn(C(F)F)c4)cc13)C2 [Example 56, 1-(3-(6-(1-(difluoromethyl)-1H-pyrazol-4-yl)pyrrolo[2,1-f][1,2,4]triazin-4-yl)-3,8-diazabicyclo[3.2.1]octan-8-yl)-2,2-difluoropropan-1-one] | 233 nM | 1140 nM | 3340 nM | 1360 nM |
| O=C([C@@H]1C[C@H]1F)N1C2CCC1CN(c1ccnn3cc(C4CC4)cc13)C2 [Example 24, (3-(6-cyclopropylpyrrolo[1,2-b]pyridazin-4-yl)-3,8-diazabicyclo[3.2.1]octan-8-yl)((1S,2R)-2-fluorocyclopropyl)methanone] | 164 nM | 2740 nM | 5900 nM | 9080 nM |
| O=C([C@@H]1C[C@H]1F)N1C2CCC1CN(c1ncnn3cc(-c4ccc(=O)n(C(F)F)c4)cc13)C2 [Example 110, 1-(difluoromethyl)-5-(4-(8-((1S,2R)-2-fluorocyclopropane-1-carbonyl)-3,8-diazabicyclo[3.2.1]octan-3-yl)pyrrolo[2,1-f][1,2,4]triazin-6-yl)pyridin-2(1H)-one] | 56.5 nM | 758 nM | 812 nM | 3960 nM |
| O=C(C1C(F)(F)C12CC2)N1C2CCC1CN(c1ncnn3cc(-c4cnn(C(F)F)c4)cc13)C2 (centres unmarked) [Example 10, (3-(6-(1-(difluoromethyl)-1H-pyrazol-4-yl)pyrrolo[2,1-f][1,2,4]triazin-4-yl)-3,8-diazabicyclo[3.2.1]octan-8-yl)(2,2-difluorospiro[2.2]pentan-1-yl)methanone] | 207 nM | 969 nM | 4330 nM | 3220 nM |
| N#C[C@@H]1C[C@@H]1C(=O)N1C2CCC1CN(c1ncnn3cc(-c4cnn(C(F)F)c4)cc13)C2 (racemic) [Example 47, Rac-(1R,2S)-2-(3-(6-(1-(difluoromethyl)-1H-pyrazol-4-yl)pyrrolo[2,1-f][1,2,4]triazin-4-yl)-3,8-diazabicyclo[3.2.1]octane-8-carbonyl)cyclopropane-1-carbonitrile] | 783 nM | 2530 nM | 8360 nM | 6070 nM |
| Cn1cc(-c2cc3c(N4CC5CCC(C4)N5S(=O)(=O)C4CC4)ncnn3c2)cn1 [Example 187, 4-(8-(cyclopropylsulfonyl)-3,8-diazabicyclo[3.2.1]octan-3-yl)-6-(1-methyl-1H-pyrazol-4-yl)pyrrolo[2,1-f][1,2,4]triazine] | 643 nM | 9660 nM | 5410 nM | 9430 nM |
| Cn1cc(-c2cc3c(N4CC5CCC(C4)N5C(=O)C4CC(F)C4)ncnn3c2)cn1 (centres unmarked) [Example 69, (3-fluorocyclobutyl)(3-(6-(1-methyl-1H-pyrazol-4-yl)pyrrolo[2,1-f][1,2,4]triazin-4-yl)-3,8-diazabicyclo[3.2.1]octan-8-yl)methanone] | 694 nM | 6660 nM | 10000 nM | 9720 nM |
| N#Cc1ccc(-c2cc3c(N4CC5CCC(C4)N5C(=O)[C@@H]4C[C@H]4F)ccnn3c2)cn1 [Example 103, 5-(4-(8-((1S,2R)-2-fluorocyclopropane-1-carbonyl)-3,8-diazabicyclo[3.2.1]octan-3-yl)pyrrolo[1,2-b]pyridazin-6-yl)picolinonitrile] | 5.2 nM | 77 nM | 60 nM | 913 nM |
| COc1cc(-c2nc3c(N4CC5CCC(C4)N5C(=O)[C@@H]4C[C@H]4F)ccnc3[nH]2)ccn1 [Example 203, ((1S,2R)-2-fluorocyclopropyl)(3-(2-(2-methoxypyridin-4-yl)-3H-imidazo[4,5-b]pyridin-7-yl)-3,8-diazabicyclo[3.2.1]octan-8-yl)methanone] | 7 nM | 19 nM | 42 nM | 578 nM |
| Cc1cc(-c2cc3c(N4CC5CCC(C4)N5C(=O)[C@@H]4C[C@H]4F)ncnn3c2)on1 [Example 166] | 56 nM | 1160 nM | 1050 nM | 9260 nM |
| N#Cc1ccc(-c2cc3c(N4CC5CCC(C4)N5C(=O)[C@@H]4C[C@H]4F)ncnc3[nH]2)cn1 [Example 227, 5-(4-(8-((1S,2R)-2-fluorocyclopropane-1-carbonyl)-3,8-diazabicyclo[3.2.1]octan-3-yl)-7H-pyrrolo[2,3-d]pyrimidin-6-yl)picolinonitrile] | 31.6 nM | 268 nM | 418 nM | 1590 nM |
| N#CC1(C(=O)N2C3CCC2CN(c2ncnn4cc(-c5cnn(C(F)F)c5)cc24)C3)CC1 [Example 30, 1-(3-(6-(1-(difluoromethyl)-1H-pyrazol-4-yl)pyrrolo[2,1-f][1,2,4]triazin-4-yl)-3,8-diazabicyclo[3.2.1]octane-8-carbonyl)cyclopropane-1-carbonitrile trifluoroacetate] | 90 nM | 191 nM | 938 nM | 820 nM |
